Reference: patent US9469631B2 (Boehringer Ingelheim International GmbH, priority 2012, dated 2016)

Biological target: human GPR119 (Homo sapiens (Human), UniProt Q8TDV5)
Experiment: AlphaScreen cAMP assay in MIN6 cells stably transfected with human GPR119
Assay type: cell-based
Settings: Min-6/hGPR119 cells, 45 min incubation at room temperature
Method: The compounds of formula I according to the invention modulate the activity of the G-protein-coupled receptor GPR119. The effect of the compounds on the activation of GPR119 and on the stimulation of intracellular cAMP concentration is determined using the AlphaScreen cAMP Assay Kit (Cat. No. #6760625R) made by PerkinElmer.
MIN6 cells [Miyazaki J et al. Endocrinology. 1990 July; 127(1):126-32] are stably transfected with an expression vector for human GPR119 cDNA (Acc. No. NP_848566). Min-6/hGPR119 cells are cultured in DMEM, 10% FBS, 50 μM β-mercaptoethanol, 0.3 mg/mL Geniticin, 2 mM GlutaMAX at 37° C. 5% CO2. For the assay, the cells are seeded in Optiplates (white, 384-well, 160W-barcoded, TC, sterile with lid, Cat. No. #6007688 (Perkin Elmer); 10000 cells/well; 50 μl). The plates covered with lids are then incubated for 24 hours at 37° C./5% CO2. After the medium is aspirated from the wells completely, 10 μl of the test compound are added, the compounds are diluted using stimulating buffer (140 mM NaCl, 3.6 mM KCl, 0.5 mM NaH2PO4, 0.5 mM MgSO4, 1.5 mM CaCl2, 10 mM Hepes, 5 mM NaHCO3; pH 7.4. 0.5 mM IBMX and 0.1% BSA, the final DMSO concentration is 1%). After 45 minutes incubation at room temperature (approx. 20° C.), the cAMP concentrations are determined using the AlphaScreen cAMP Assay Kit (Cat. No. #6760625R from PerkinElmer).

Chain of human GPR119 (Q8TDV5 whole entry): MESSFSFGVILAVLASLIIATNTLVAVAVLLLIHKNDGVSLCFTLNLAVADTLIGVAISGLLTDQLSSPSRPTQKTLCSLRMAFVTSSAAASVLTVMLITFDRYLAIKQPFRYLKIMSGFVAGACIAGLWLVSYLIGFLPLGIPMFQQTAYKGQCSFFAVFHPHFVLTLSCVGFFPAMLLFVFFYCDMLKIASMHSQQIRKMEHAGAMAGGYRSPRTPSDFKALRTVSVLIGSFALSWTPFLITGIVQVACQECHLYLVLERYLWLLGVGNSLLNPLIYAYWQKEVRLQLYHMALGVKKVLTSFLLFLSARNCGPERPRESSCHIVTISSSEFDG

For `CC(C)(C)OC(=O)N1CCC(N(C(=O)c2ccc(-c3ccncc3C#N)cc2)C2CC2)CC1` [Example 29, 4-{[4-(3-Cyano-pyridin-4-yl)-benzoyl]-cyclopropyl-amino}-piperidine-1-carboxylic acid tert-butyl ester], which EC50 is on record?
Its EC50 is 27 nM.

Which EC50 does the source give for `CNC(=O)c1ccc(-c2ccc(C(=O)N(C3CC3)C3CCN(C(=O)OC(C)(C)C)CC3)cc2)nc1` [Example 30, 4-{Cyclopropyl-[4-(5-methylcarbamoyl-pyridin-2-yl)-benzoyl]-amino}-piperidine-1-carboxylic acid tert-butyl ester] here?
Its EC50 is 171 nM.

`CC(C)OC(=O)N1CCC(N(C(=O)c2ccc(-c3ccncc3C#N)cc2)C2CC2)CC1` [Example 31, 4-{[4-(3-Cyano-pyridin-4-yl)-benzoyl]-cyclopropyl-amino}-piperidine-1-carboxylic acid isopropyl ester] was tested. Which EC50 did it give?
Its EC50 is 49 nM.

How did the EC50 turn out when `CC1(OC(=O)N2CCC(N(C(=O)c3ccc(-c4ccncc4C#N)cc3)C3CC3)CC2)CC1` [Example 32, 4-{[4-(3-Cyano-pyridin-4-yl)-benzoyl]-cyclopropyl-amino}-piperidine-1-carboxylic acid 1-methyl-cyclopropyl ester] was run?
Its EC50 is 19 nM.

Which EC50 does the source give for `CC(C)(C)OC(=O)N1CCC(N(C(=O)c2cc(F)c(-c3cnco3)c(F)c2)C2CC2)CC1` [Example 33, 4-[Cyclopropyl-(3,5-difluoro-4-oxazol-5-yl-benzoyl)-amino]-piperidine-1-carboxylic acid tert-butyl ester] here?
The EC50 was 9 nM.

For `CC(C)(C)OC(=O)N1CCC(N(C(=O)c2ccc(-c3ccncc3C#N)c(F)c2)C2CC2)CC1` [Example 34, 4-{[4-(3-Cyano-pyridin-4-yl)-3-fluoro-benzoyl]-cyclopropyl-amino}-piperidine-1-carboxylic acid tert-butyl ester], which EC50 is on record?
The EC50 was 21 nM.

With `CC(C)(C)OC(=O)N1CCC(N(C(=O)c2ccc(-c3cnco3)cc2F)C2CC2)CC1` [Example 35, 4-[Cyclopropyl-(2-fluoro-4-oxazol-5-yl-benzoyl)-amino]-piperidine-1-carboxylic acid tert-butyl ester] as the molecule, how does the EC50 read?
Its EC50 is 45 nM.

How did the EC50 turn out when `CC(C)(C)OC(=O)N1CCC(N(C(=O)c2c(F)cc(-c3cnco3)cc2F)C2CC2)CC1` [Example 36, 4-[Cyclopropyl-(2,6-difluoro-4-oxazol-5-yl-benzoyl)-amino]-piperidine-1-carboxylic acid tert-butyl ester] was run?
The EC50 was 219 nM.

For `Cn1cncc1-c1ccc(C(=O)N(C2CC2)C2CCN(C(=O)OC(C)(C)C)CC2)cc1` [Example 42, 4-{Cyclopropyl-[4-(3-methyl-3H-imidazol-4-yl)-benzoyl]-amino}-piperidine-1-carboxylic acid tert-butyl ester], which EC50 is on record?
The EC50 was 152 nM.

`Cc1ncc(-c2ccc(C(=O)N(C3CC3)C3CCN(C(=O)OC(C)(C)C)CC3)cc2)o1` [Example 43, 4-{Cyclopropyl-[4-(2-methyl-oxazol-5-yl)-benzoyl]-amino}-piperidine-1-carboxylic acid tert-butyl ester] was tested. Which EC50 did it give?
The EC50 was 149 nM.

`CC(C)(C)OC(=O)N1CCC(N(C(=O)c2ccc(-c3cocn3)cc2)C2CC2)CC1` [Example 44, 4-[Cyclopropyl-(4-oxazol-4-yl-benzoyl)-amino]-piperidine-1-carboxylic acid tert-butyl ester] was tested. Which EC50 did it give?
Its EC50 is 298 nM.

With `COC1CN(C(=O)OC(C)(C)C)CCC1N(C(=O)c1ccc(-c2cnco2)cc1)C1CC1` (stereo not shown) [Example 45, 4-[Cyclopropyl-(4-oxazol-5-yl-benzoyl)-amino]-3-methoxy-piperidine-1-carboxylic acid tert-butyl ester] as the molecule, how does the EC50 read?
The EC50 was 15 nM.

How did the EC50 turn out when `CC(C)(C)OC(=O)N1CCC(N(C(=O)c2ccc(-n3ccnc3)cc2)C2CC2)CC1` [Example 52, 4-[Cyclopropyl-(4-imidazol-1-yl-benzoyl)-amino]-piperidine-1-carboxylic acid tert-butyl ester] was run?
Its EC50 is 832 nM.

`CC(C)(C)OC(=O)N1CCC(N(C(=O)c2ccc(-c3cnco3)cc2)C2CC2)CC1` [Example 53, 4-[Cyclopropyl-(4-oxazol-5-yl-benzoyl)-amino]-piperidine-1-carboxylic acid tert-butyl ester] was tested. Which EC50 did it give?
The EC50 was 33 nM.

Which EC50 does the source give for `CC(C)(C)OC(=O)N1CCC(N(C(=O)c2ccc(-c3ccc(C#N)cc3)cc2)C2CC2)CC1` [Example 54, 4-[(4′-Cyano-biphenyl-4-carbonyl)-cyclopropyl-amino]-piperidine-1-carboxylic acid tert-butyl ester] here?
Its EC50 is 84 nM.

For `Cc1cn(-c2ccc(C(=O)N(C3CC3)C3CCN(C(=O)OC(C)(C)C)CC3)cc2)c(C)n1` [Example 55, 4-{Cyclopropyl-[4-(2,4-dimethyl-imidazol-1-yl)-benzoyl]-amino}-piperidine-1-carboxylic acid tert-butyl ester], which EC50 is on record?
Its EC50 is 927 nM.

With `CC(C)(C)OC(=O)N1CCC(N(C(=O)c2ccc(-n3cnc(-c4ccccc4)c3)cc2)C2CC2)CC1` [Example 56, 4-{Cyclopropyl-[4-(4-phenyl-imidazol-1-yl)-benzoyl]-amino}-piperidine-1-carboxylic acid tert-butyl ester] as the molecule, how does the EC50 read?
The EC50 was 104 nM.

For `CC(C)(C)OC(=O)N1CCC(N(C(=O)c2ccc(-c3ccno3)cc2)C2CC2)CC1` [Example 57, 4-[Cyclopropyl-(4-isoxazol-5-yl-benzoyl)-amino]-piperidine-1-carboxylic acid tert-butyl ester], which EC50 is on record?
The EC50 was 99 nM.

Which EC50 does the source give for `CC(C)(C)OC(=O)N1CCC(N(C(=O)c2ccc(-c3cccs3)cc2)C2CC2)CC1` [Example 58, 4-[Cyclopropyl-(4-thiophen-2-yl-benzoyl)-amino]-piperidine-1-carboxylic acid tert-butyl ester] here?
The EC50 was 214 nM.

How did the EC50 turn out when `CC(C)(C)OC(=O)N1CCC(N(C(=O)c2ccc(-c3nccs3)cc2)C2CC2)CC1` [Example 59, 4-[Cyclopropyl-(4-thiazol-2-yl-benzoyl)-amino]-piperidine-1-carboxylic acid tert-butyl ester] was run?
The EC50 was 332 nM.

Which EC50 does the source give for `Cc1noc(-c2ccc(C(=O)N(C3CC3)C3CCN(C(=O)OC(C)(C)C)CC3)cc2)n1` [Example 60, 4-{Cyclopropyl-[4-(3-methyl-[1,2,4]oxadiazol-5-yl)-benzoyl]-amino}-piperidine-1-carboxylic acid tert-butyl ester] here?
The EC50 was 347 nM.

With `Cc1nnc(-c2ccc(C(=O)N(C3CC3)C3CCN(C(=O)OC(C)(C)C)CC3)cc2)o1` [Example 61, 4-{Cyclopropyl-[4-(5-methyl-[1,3,4]oxadiazol-2-yl)-benzoyl]-amino}-piperidine-1-carboxylic acid tert-butyl ester] as the molecule, how does the EC50 read?
Its EC50 is 513 nM.

With `CC(C)(C)OC(=O)N1CCC(N(C(=O)c2ccc(-c3nnco3)cc2)C2CC2)CC1` [Example 62, 4-[Cyclopropyl-(4-[1,3,4]oxadiazol-2-yl-benzoyl)-amino]-piperidine-1-carboxylic acid tert-butyl ester] as the molecule, how does the EC50 read?
Its EC50 is 650 nM.

`CC(C)(C)OC(=O)N1CCC(N(C(=O)c2ccc(-n3cncn3)cc2)C2CC2)CC1` [Example 63, 4-[Cyclopropyl-(4-[1,2,4]triazol-1-yl-benzoyl)-amino]-piperidine-1-carboxylic acid tert-butyl ester] was tested. Which EC50 did it give?
The EC50 was 127 nM.

For `CC(C)(C)OC(=O)N1CCC(N(C(=O)c2ccc(-n3cccc3)cc2)C2CC2)CC1` [Example 64, 4-[Cyclopropyl-(4-pyrrol-1-yl-benzoyl)-amino]-piperidine-1-carboxylic acid tert-butyl ester], which EC50 is on record?
The EC50 was 278 nM.

How did the EC50 turn out when `CC(C)(C)OC(=O)N1CCC(N(C(=O)c2ccc(-c3ccco3)cc2)C2CC2)CC1` [Example 65, 4-[Cyclopropyl-(4-furan-2-yl-benzoyl)-amino]-piperidine-1-carboxylic acid tert-butyl ester] was run?
The EC50 was 659 nM.

`CC(C)(C)OC(=O)N1CCC(N(C(=O)c2ccc(-c3nnc(N)s3)cc2)C2CC2)CC1` [Example 66, 4-{[4-(5-Amino-[1,3,4]thiadiazol-2-yl)-benzoyl]-cyclopropyl-amino}-piperidine-1-carboxylic acid tert-butyl ester] was tested. Which EC50 did it give?
The EC50 was 875 nM.

`Cc1nc(-c2ccc(C(=O)N(C3CC3)C3CCN(C(=O)OC(C)(C)C)CC3)cc2)no1` [Example 67, 4-{Cyclopropyl-[4-(5-methyl-[1,2,4]oxadiazol-3-yl)-benzoyl]-amino}-piperidine-1-carboxylic acid tert-butyl ester] was tested. Which EC50 did it give?
Its EC50 is 316 nM.

`CC(C)(C)OC(=O)N1CCC(N(C(=O)c2ccc(-c3noc(Cc4ccccc4)n3)cc2)C2CC2)CC1` [Example 68, 4-{[4-(5-Benzyl-[1,2,4]oxadiazol-3-yl)-benzoyl]-cyclopropyl-amino}-piperidine-1-carboxylic acid tert-butyl ester] was tested. Which EC50 did it give?
The EC50 was 192 nM.

With `CC(C)(C)OC(=O)N1CCC(N(C(=O)c2ccc(-c3cncnc3)cc2)C2CC2)CC1` [Example 69, 4-[Cyclopropyl-(4-pyrimidin-5-yl-benzoyl)-amino]-piperidine-1-carboxylic acid tert-butyl ester] as the molecule, how does the EC50 read?
The EC50 was 158 nM.

With `CC(C)(C)OC(=O)N1CCC(N(C(=O)c2ccc(-c3ccncc3)cc2)C2CC2)CC1` [Example 70, 4-[Cyclopropyl-(4-pyridin-4-yl-benzoyl)-amino]-piperidine-1-carboxylic acid tert-butyl ester] as the molecule, how does the EC50 read?
Its EC50 is 41 nM.
